Values of other authors as cited in patent US8648203B2 (priority 2005, dated 2014).

Test system: benzimidazole and/or dicarboximide resistant strains of B. cinerea

O=[N+]([O-])c1cc(C(F)(F)F)c(Cl)c([N+](=O)[O-])c1Nc1ncc(C(F)(F)F)cc1Cl [fluazinam, 3-chloro-N-(3-chloro-5-trifluoromethyl-2-pyridyl)-α,α,α-trifluoro-2,6-dinitro-p-toluidine]
activity against resistant strains of B. cinerea: good activity
